Test results as given in patent US20220348558A1, “INHIBITORS OF ENCEPHALITIC ALPHAVIRUSES” (priority 2019, published 2022).

Legend:
VEEV TC83 = experiment: microbe, parasite or virus in culture; type: cell-based; conditions: Venezuelan equine encephalitis virus, Vero 76, 48 h, read-out: VEEV TC83 EC50 nM
WEEV California = experiment: microbe, parasite or virus in culture; type: cell-based; conditions: Western equine encephalitis virus, Vero 76, 48 h, read-out: WEEV California EC50 nM

Compound	EC50 (VEEV TC83) [nM]	EC50 (WEEV California) [nM]
COc1ccc(-n2c(-c3ncco3)nc3c(-c4ccc(C)nc4)cc(C#N)cc3c2=O)cc1F [Example 202, 3-(3-fluoro-4-methoxyphenyl)-8-(6-methylpyridin-3-yl)-2-(oxazol-2-yl)-4-oxo-3,4-dihydroquinazoline-6-carbonitrile]	> 1000	> 1000
COc1c(F)cc(-n2c(C3CCCN3)nc3c(-c4ccc(C#CCO)cc4)cc(C#N)cc3c2=O)cc1F (centres unmarked) [Example 169, 3-(3,5-difluoro-4-methoxyphenyl)-8-(4-(3-hydroxyprop-1-yn-1-yl)phenyl)-4-oxo-2-(pyrrolidin-2-yl)-3,4-dihydroquinazoline-6-carbonitrile]	51 to 150	51 to 150
COc1ccc(-n2c([C@H]3CCCN3C)nc3c(-c4ccoc4)cc(C#N)cc3c2=O)cc1F [Example 115, (R)-3-(3-fluoro-4-methoxyphenyl)-8-(furan-3-yl)-2-(1-methylpyrrolidin-2-yl)-4-oxo-3,4-dihydroquinazoline-6-carbonitrile]	1 to 50	1 to 50
CNC(C)c1nc2ccc([N+](=O)[O-])cc2c(=O)n1-c1ccc(OC)cc1 (centres unmarked) [Example 205, 3-(4-methoxyphenyl)-2-(1-(methylamino)ethyl)-6-nitroquinazolin-4 (3H)-one]	51 to 150	51 to 150
O=c1c2cc([N+](=O)[O-])ccc2nc([C@H]2CCCN2)n1-c1ccc(Cl)cc1 [Example 23, (R)-3-(4-chlorophenyl)-6-nitro-2-(pyrrolidin-2-yl) quinazolin-4 (3H)-one]	1 to 50	1 to 50
COc1ccc(-n2c(C3CCCN3)nc3c(-c4ccc(-c5ccccc5)nc4)cc(C#N)cc3c2=O)cc1F (centres unmarked) [Example 133, 3-(3-fluoro-4-methoxyphenyl)-4-oxo-8-(6-phenylpyridin-3-yl)-2-(pyrrolidin-2-yl)-3,4-dihydroquinazoline-6-carbonitrile]	1 to 50	1 to 50
COc1ccc(-n2c(C3CCCN3)nc3c(-c4ccc(O)cc4)cc(C#N)cc3c2=O)cc1F (centres unmarked) [Example 158, 3-(3-Fluoro-4-methoxyphenyl)-8-(4-hydroxyphenyl)-4-oxo-2-(pyrrolidin-2-yl)-3,4-dihydroquinazoline-6-carbonitrile]	501 to 1000	501 to 1000
COc1ccc(-n2c(-c3cnco3)nc3c(-c4ccc(C)nc4)cc(C#N)cc3c2=O)cc1F [Example 198, 3-(3-fluoro-4-methoxyphenyl)-8-(6-methylpyridin-3-yl)-2-(oxazol-5-yl)-4-oxo-3,4-dihydroquinazoline-6-carbonitrile]	> 1000	> 1000
Cc1ccc(-n2c([C@H]3CCCN3)nc3ccc([N+](=O)[O-])cc3c2=O)cc1 [Example 37, (R)-6-nitro-2-(pyrrolidin-2-yl)-3-(p-tolyl)quinazolin-4 (3H)-one]	1 to 50	501 to 1000
Cc1cc([N+](=O)[O-])cc2c(=O)n(-c3ccc(Cl)c(F)c3)c([C@H]3CCCN3)nc12 [Example 60, (R)-3-(4-chloro-3-fluorophenyl)-8-methyl-6-nitro-2-(pyrrolidin-2-yl) quinazolin-4 (3H)-one]	1 to 50	1 to 50
COc1ccc(-n2c([C@H]3CCCN3)nc3c(-c4ccnc(F)c4)cc([N+](=O)[O-])cc3c2=O)cc1F [Example 90, (R)-3-(3-fluoro-4-methoxyphenyl)-8-(2-fluoropyridin-4-yl)-6-nitro-2-(pyrrolidin-2-yl) quinazolin-4 (3H)-one]	1 to 50	1 to 50
COc1c(F)cc(-n2c(C3CCCN3)nc3c(-c4cc(C)nc(C)c4)cc(C#N)cc3c2=O)cc1F (centres unmarked) [Example 159, 3-(3,5-Difluoro-4-methoxyphenyl)-8-(2,6-dimethylpyridin-4-yl)-4-oxo-2-(pyrrolidin-2-yl)-3,4-dihydroquinazoline-6-carbonitrile]	51 to 150	51 to 150
CNCc1nc2ccc([N+](=O)[O-])cc2c(=O)n1-c1ccc(OC)cc1 [Example 210, 3-(4-methoxyphenyl)-2-((methylamino)methyl)-6-nitroquinazolin-4 (3H)-one]	> 1000	> 1000
COc1ccc(-n2c([C@H]3CCNC3)nc3c(C)cc([N+](=O)[O-])cc3c2=O)cc1F [Example 65, (S)-3-(3-fluoro-4-methoxyphenyl)-8-methyl-6-nitro-2-(pyrrolidin-3-yl) quinazolin-4 (3H)-one]	51 to 150	51 to 150
COc1ccc(-n2c([C@H]3CCCN3)nc3c(-c4cncc(C#N)c4)cc([N+](=O)[O-])cc3c2=O)cc1F [Example 94, (R)-3-(3-fluoro-4-methoxyphenyl)-8-(5-cyanopyridin-3-yl)-6-nitro-2-(pyrrolidin-2-yl) quinazolin-4 (3H)-one]	1 to 50	51 to 150
COc1ccc(-n2c(-c3cn(C)cn3)nc3c(-c4ccc(C)nc4)cc(C#N)cc3c2=O)cc1F [Example 200, 3-(3-fluoro-4-methoxyphenyl)-2-(1-methyl-1H-imidazol-4-yl)-8-(6-methylpyridin-3-yl)-4-oxo-3,4-dihydroquinazoline-6-carbonitrile]	> 1000	> 1000

Compound	EC50 (VEEV TC83) [nM]	EC50 (WEEV California) [nM]
COc1ccc(-n2c([C@H]3C[C@H](F)CN3)nc3c(C)cc(C#N)cc3c2=O)cc1 [Example 53, 2-((2R,4S)-4-fluoropyrrolidin-2-yl)-3-(4-methoxyphenyl)-8-methyl-4-oxo-3,4-dihydroquinazoline-6-carbonitrile]	151 to 500	151 to 500
COc1c(F)cc(-n2c(C3CCCNC3)nc3c(-c4ccc(C)nc4)cc(C#N)cc3c2=O)cc1F (centres unmarked) [Example 189, 3-(3,5-difluoro-4-methoxyphenyl)-8-(6-methylpyridin-3-yl)-4-oxo-2-(piperidin-3-yl)-3,4-dihydroquinazoline-6-carbonitrile]	51 to 150	51 to 150
COc1ccc(-n2c([C@H]3CCCN3)nc3c(-c4cncc(F)c4)cc([N+](=O)[O-])cc3c2=O)cc1F [Example 93, (R)-3-(3-fluoro-4-methoxyphenyl)-8-(5-fluoropyridin-3-yl)-6-nitro-2-(pyrrolidin-2-yl) quinazolin-4 (3H)-one]	1 to 50	1 to 50
COc1ccc(-n2c([C@H]3CCCN3C)nc3c(C)cc([N+](=O)[O-])cc3c2=O)cc1F [Example 71, (R)-3-(3-fluoro-4-methoxyphenyl)-8-methyl-2-(1-methylpyrrolidin-2-yl)-6-nitroquinazolin-4 (3H)-one]	51 to 150	51 to 150
O=c1c2cc([N+](=O)[O-])ccc2nc(C2CCCN2)n1-c1ccccc1Cl (centres unmarked) [Example 38, 3-(2-chlorophenyl)-6-nitro-2-(pyrrolidin-2-yl) quinazolin-4 (3H)-one]	> 1000	> 1000
COc1ccc(-n2c([C@@H]3C[C@@H](O)CN3)nc3c(-c4ccc(C)nc4)cc(C#N)cc3c2=O)cc1F [Example 116, 3-(3-fluoro-4-methoxyphenyl)-2-((2S,4R)-4-hydroxypyrrolidin-2-yl)-8-(6-methylpyridin-3-yl)-4-oxo-3,4-dihydroquinazoline-6-carbonitrile]	> 1000	> 1000
CN1CCC(N2CCC[C@H]2c2nc3ccc([N+](=O)[O-])cc3c(=O)n2-c2ccccc2)CC1 [Example 7, (S)-2-(1-(1-methylpiperidin-4-yl)pyrrolidin-2-yl)-6-nitro-3-phenylquinazolin-4 (3H)-one]	> 1000	> 1000
COc1ccc(-n2c([C@H]3CCCN3)nc3c([N+](=O)[O-])cccc3c2=O)cc1 [Example 47, (R)-3-(4-methoxyphenyl)-8-nitro-2-(pyrrolidin-2-yl)quinazolin-4 (3H)-one]	> 1000	> 1000
COc1ccc(-n2c(C3CCCN3)nc3c(-c4ccc(NS(C)(=O)=O)cc4)cc(C#N)cc3c2=O)cc1F (centres unmarked) [Example 157, N-(4-(6-Cyano-3-(3-fluoro-4-methoxyphenyl)-4-oxo-2-(pyrrolidin-2-yl)-3,4-dihydroquinazolin-8-yl)phenyl)methanesulfonamide]	51 to 150	51 to 150
COc1ccc(-n2c([C@H]3C[C@H](F)CN3)nc3c(-c4ccc(C)nc4)cc(C#N)cc3c2=O)cc1F [Example 112, 3-(3-fluoro-4-methoxyphenyl)-2-((2R,4S)-4-fluoropyrrolidin-2-yl)-8-(6-methylpyridin-3-yl)-4-oxo-3,4-dihydroquinazoline-6-carbonitrile]	1 to 50	51 to 150
COc1ccc(-n2c([C@H]3CCCN3)nc3c(-c4cncnc4)cc([N+](=O)[O-])cc3c2=O)cc1F [Example 88, (R)-3-(3-fluoro-4-methoxyphenyl)-6-nitro-8-(pyrimidin-5-yl)-2-(pyrrolidin-2-yl) quinazol-in-4 (3H)-one]	1 to 50	1 to 50
Cc1ccc(-c2cc(C#N)cc3c(=O)n(-c4ccc(N(C)C)c(F)c4)c(C4CCCN4)nc23)cn1 (centres unmarked) [Example 145, 3-(4-(Dimethylamino)-3-fluorophenyl)-8-(6-methylpyridin-3-yl)-4-oxo-2-(pyrrolidin-2-yl)-3,4-dihydroquinazoline-6-carbonitrile]	1 to 50	151 to 500
COc1ccc(-n2c([C@H]3CCCN3)nc3cc([N+](=O)[O-])ccc3c2=O)cc1 [Example 48, (R)-3-(4-methoxyphenyl)-7-nitro-2-(pyrrolidin-2-yl)quinazolin-4 (3H)-one]	> 1000	> 1000
COc1ccc(-n2c([C@H]3CCCN3)nc3c(C4CC4)cc([N+](=O)[O-])cc3c2=O)cc1 [Example 95, (R)-8-cyclopropyl-3-(4-methoxyphenyl)-6-nitro-2-(pyrrolidin-2-yl) quinazolin-4 (3H)-one]	1 to 50	51 to 150
COc1ccc(-n2c(C3CCCN3)nc3c(CCc4ccc(C)nc4)cc(C#N)cc3c2=O)cc1F (centres unmarked) [Example 195, 3-(3-Fluoro-4-methoxyphenyl)-8-(2-(6-methylpyridin-3-yl)ethyl)-4-oxo-2-(pyrrolidin-2-yl)-3,4-dihydroquinazoline-6-carbonitrile]	51 to 150	51 to 150
